Values quoted from earlier work in US12295916B2, “Process for making aqueous therapeutic particle having stable exterior water clustering with nanosized thickness” (priority 2019, dated 2025).

Conditions: given by injection

For CNC1(c2ccccc2Cl)CCCCC1=O (centres unmarked) [Ketamine], the duration of effects is given as ≤ 25 min and the “time to begin of effects” value is given as “five”.
